Several values for one entry are separate records, joined by “and”; a condition that tells them apart may be missing. Equal entries are not always repeated.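 How tested: cells in 96-well plates exposed to compound for 48 hours at five concentrations. At the GI50, growth is halved. TGI is the concentration that stops growth completely.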
Key:
Assay in all cases: inhibition of tumour cell growth, NCI panel, 48 h
HCT-15 colon = tested on: HCT-15 colon
HL-60(TB) leukemia = tested on: HL-60(TB) leukemia
LOX IMVI melanoma = tested on: LOX IMVI melanoma
NCI-H226 lung = tested on: NCI-H226 lung
RPMI-8226 leukemia = tested on: RPMI-8226 leukemia
SF-295 CNS = tested on: SF-295 CNS
SN12C renal = tested on: SN12C renal
SR leukemia = tested on: SR leukemia
T-47D breast = tested on: T-47D breast
HS 578T breast = tested on: HS 578T breast

Row | Structure (SMILES) | TGI (HCT-15 colon) | TGI (HL-60(TB) leukemia) | TGI (LOX IMVI melanoma) | TGI (NCI-H226 lung) | TGI (RPMI-8226 leukemia) | TGI (SF-295 CNS) | TGI (SN12C renal) | TGI (SR leukemia) | TGI (T-47D breast) | TGI (HS 578T breast) | GI50 (HCT-15 colon) | GI50 (HL-60(TB) leukemia) | GI50 (LOX IMVI melanoma) | GI50 (RPMI-8226 leukemia) | GI50 (SF-295 CNS) | GI50 (SN12C renal) | GI50 (SR leukemia)
1 | C=CC[N+](CCO)(CCO)CCCCCCCCCCCCCCCCCC | 41.4 µM | 2.51 µM | 12.6 µM | 28.7 µM | 5.45 µM | 21.5 µM | 24 µM |  |  |  |  |  |  |  |  |  | 
2 | COc1c(-c2cccs2)oc2c(CC(=O)O)cccc2c1=O |  | > 100 µM |  |  | 5.92 µM | > 100 µM | > 100 µM | > 100 µM | > 100 µM |  |  |  |  |  |  |  | 
3 | N/C(=N\N=C\c1cc2c(cc1Cl)OCO2)NO | > 100 µM | 41.7 µM | > 100 µM | > 93.7 µM | > 72.8 µM | 74.8 µM | > 100 µM |  |  |  |  |  |  |  |  |  | 
4 | CCOC(=O)c1nc2cc(C(F)(F)F)ccc2nc1Nc1ccc(F)cc1 | > 100 µM |  | > 100 µM | > 100 µM | 61.6 µM | > 100 µM | > 100 µM |  | > 100 µM |  |  |  |  |  |  |  | 
5 | NNC(=O)CCC(NS(=O)(=O)c1ccc(Cl)cc1)C(=O)NN (configuration not stated) | > 100 µM | > 100 µM | > 100 µM | > 100 µM |  | > 100 µM | > 100 µM | > 100 µM | > 100 µM | > 100 µM |  |  |  |  |  |  | 
6 | CN(C)CCCNc1cnc2cc3ccccc3cc2n1 | 56 µM | 68.3 µM | 35.7 µM | 40.6 µM | 82.2 µM | 52.4 µM | > 100 µM | > 100 µM |  | > 100 µM |  |  |  |  |  |  | 
7 | COc1ccc(/C=N\NC(=O)Nc2cccc3ccccc23)cc1 | > 100 µM |  | > 100 µM | 83.7 µM | > 100 µM |  | > 100 µM |  | 38.2 µM | 61.2 µM |  |  |  |  |  |  | 
8 | Cc1ccc(S(=O)(=O)C2c3nc4ccccc4cc3-c3nc4ccccc4nc32)cc1 (configuration not stated) | > 100 µM | > 100 µM | > 100 µM |  | > 100 µM |  | > 100 µM | > 100 µM |  |  |  |  |  |  |  |  | 
9 | COc1cc([C@@H]2c3cc4c(cc3[C@@H](N=Cc3ccc(C(=O)O[C@@H](C(=O)O[C@H]5C[C@@]6(O)[C@@H](OC(=O)c7ccccc7)[C@@H]7[C@]8(OC(C)=O)CO[C@@H]8C[C@H](O)[C@@]7(C)C(=O)[C@H](OC(C)=O)C(=C5C)C6(C)C)[C@@H](NC(=O)c5ccccc5)c5ccccc5)cc3)[C@H]3COC(=O)[C@H]23)OCO4)cc(OC)c1O | > 50 µM | 0.182 µM | > 50 µM |  |  | 24.8 µM | > 50 µM |  | > 50 µM | > 50 µM |  |  |  |  |  |  | 
10 | COc1ccc(/C(Cl)=C(\C=O)c2ccccc2)cc1OC | > 100 µM | 76.9 µM | > 100 µM | 82.2 µM |  | 55.1 µM | > 100 µM | > 100 µM |  |  |  |  |  |  |  |  | 
11 | CC(O)c1cc2c(s1)C(=O)c1scc(C(C)O)c1C2=O (configuration not stated) | 1.13 µM | > 100 µM | > 100 µM | 4.03 µM | 0.626 µM | 0.364 µM | 0.44 µM | > 100 µM | 4.53 µM |  |  |  |  |  |  |  | 
12 | C=C1C(=O)O[C@@H]2OC3(C)CCC4C(C)CCC1C42OO3 (some centres not stated) | 9.95 µM and 4.02 µM | 3.55 µM and 2 µM | 12.9 µM and 8.11 µM | 27.2 µM and 24.2 µM |  | 25.1 µM and 13.4 µM | 16.6 µM and 12.3 µM |  |  |  | 2.3 µM | 1.18 µM | 3.55 µM | 0.573 µM | 11.7 µM | 4.96 µM | 
13 | CN1CCN(/C(N)=C(\C#N)C(=O)Nc2ccccc2)CC1 | > 100 µM |  | > 100 µM | > 100 µM | > 100 µM | > 100 µM | > 100 µM | > 100 µM | > 100 µM |  |  |  |  |  |  |  | 
14 | O=C(NN1C(=O)CSC1c1ccco1)c1ccncc1 (configuration not stated) | > 100 µM | > 100 µM |  | > 100 µM | > 100 µM | > 100 µM | > 100 µM |  | > 100 µM |  |  |  |  |  |  |  | 
15 | Cc1ccc(C(=O)C2=CN=C3C(=O)N(c4ccccc4)N(C)C3(C)C2=N)cc1 (configuration not stated) | > 100 µM | > 100 µM | > 100 µM | > 100 µM | > 100 µM | > 100 µM | > 100 µM | > 100 µM |  |  |  |  |  |  |  |  | 
16 | C/C(=N\NC(=O)c1cccnc1)c1cccc(/C(C)=N/NC(=O)c2cccnc2)n1.CC(=O)[O-].CC(=O)[O-].[Zn+2] | > 100 µM | 2.86 µM | > 32.5 µM | 27.2 µM | > 100 µM | > 30.2 µM | > 100 µM | 10.8 µM |  |  |  | 0.492 µM |  |  |  |  | 0.793 µM
17 | COc1cc(/C=c2/c3ccccc3n3c2cc(-c2ccccc2)[n+]3C)cc(OC)c1OC | 18.5 µM | 7.2 µM | 12.6 µM | 32.8 µM | > 32.1 µM | 19.2 µM | 12 µM |  | 19.3 µM |  |  |  |  |  |  |  | 
18 | COc1ccc(/C=N/n2cnc3c(c2=O)S/C(=C2/SC(=S)N(c4ccc(C)cc4)C2=O)N3c2ccccc2)cc1 | > 100 µM | > 100 µM | > 100 µM | > 100 µM | > 100 µM | 38.1 µM | > 100 µM | > 100 µM |  |  |  |  |  |  |  |  | 
19 | CC1(C)OCC(COC(=O)NCn2cc(-c3ccccc3)nn2)O1 (configuration not stated) | > 100 µM | > 100 µM | > 100 µM | > 100 µM | > 100 µM | > 100 µM | > 100 µM | > 100 µM |  |  |  |  |  |  |  |  | 
20 | O=S(=O)(O)c1cc(Nc2ccnc3ccccc23)c2c(S(=O)(=O)O)cc(S(=O)(=O)O)cc2c1 | > 100 µM |  | > 100 µM | > 100 µM | > 100 µM |  | > 100 µM |  | > 100 µM | > 100 µM |  |  |  |  |  |  | 
21 | CC1=Nc2c(C#N)ncn2N=C(C)C1 |  | > 100 µM | > 100 µM | > 100 µM | > 100 µM | > 100 µM | > 100 µM | > 100 µM |  | > 100 µM |  |  |  |  |  |  | 
22 | CC(C)(C)OC(=O)N1Cc2cc(O)ccc2C[C@H]1C(=O)O | > 100 µM | > 100 µM | > 100 µM | > 100 µM |  | > 100 µM | > 100 µM | > 100 µM | > 100 µM | > 100 µM |  |  |  |  |  |  | 
23 | COc1ccc2c(c1)CC1(O)COc3cc(OC)ccc3C1O2 (configuration not stated) | > 100 µM |  | > 100 µM | > 100 µM | > 100 µM | > 100 µM | > 100 µM | > 100 µM | > 100 µM |  |  |  |  |  |  |  | 
24 | COC(=O)[C@@]12OC[C@]34C([C@@H](O)C1O)[C@@]1(C)CC(=O)C(O)=C(C)C1C[C@H]3OC(=O)[C@H](OC(=O)/C=C(/c1ccccc1)C(F)(F)F)[C@H]42 (some centres not stated) | > 25 µM | 1.41 µM |  | 11.7 µM |  | 12.7 µM | > 25 µM | 2.28 µM |  |  |  |  |  |  |  |  | 
25 | CCOC(=O)C1C[C@H]2CO[C@H](c3ccccc3)N2C1=O (some centres not stated) | > 100 µM |  | > 100 µM | > 100 µM | > 100 µM | > 100 µM | > 100 µM | > 100 µM | > 100 µM | > 100 µM |  |  |  |  |  |  | 
